Experimental data: US20250197376A1, “PYRAZINE AMIDE DERIVATIVES” (Novartis AG, priority 2022, published 2025)

Each molecule was assayed on 3D7 P. falciparum strain (assay: P. falciparum 3D7 parasite proliferation assay (SYBR Green)). Details: Plasmodium falciparum, Erythrocyte; 3D7 P. falciparum infected human erythrocytes, 72 hours, SYBR Green fluorescence; read-out: Pf3D7 Activity.
Format: cell-based
Protocol: The following assay illustrates the invention without in any way limiting the scope of the invention. This parasite proliferation assay measures the increase in parasite DNA content using a DNA intercalating dye, SYBR Green®. 3D7 P. falciparum strain is grown in complete culturing media until parasitemia reaches 3% to 8% with O+ human erythrocytes. 20 μl of screening media is dispensed into 384 well assay plates. 50 nl of compounds of the invention (in DMSO), including antimalarial controls (mefloquine, pyrimethamine and artemisinin), are then transferred into the assay plates, as well as DMSO alone to serve as a negative control for inhibition. Then 30 μl of a suspension of a 3D7 P. falciparum infected erythrocytes in screening media is dispensed into the assay plates such that the final hematocrit is 2.5% with a final parasitemia of 0.3%. The plates are placed in a 37° C. incubator for 72 hours in a low oxygen environment containing 93% N2, 4% CO2, and 3% O2 gas mixture. 10 μl of lysis buffer (saponin, triton-X, EDTA) containing a 10× solution of SYBR Green […] in RPMI media is dispensed into the plates. The plates are lidded and kept at room temperature overnight for the lysis of the infected red blood cells. The fluorescence intensity is measured (excitation […], emission 530 nm) using the Envision™ system (Perkin Elmer). The percentage inhibition of 50%, EC50, is calculated for each compound.

Compound | EC50 [nM]
COC(=O)c1ccc2[nH]c(-c3cncc(C(=O)NCC(C)(C)N)n3)c(C)c2c1 [Example 48, Methyl 2-(6-((2-amino-2-methylpropyl)carbamoyl)pyrazin-2-yl)-3-methyl-1H-indole-5-carboxylate] | 10 to 100
CC(C)(N)CNC(=O)c1cncc(-c2cc3cc(F)c(O)cc3[nH]2)n1 [Example 110, N-(2-amino-2-methylpropyl)-6-(5-fluoro-6-hydroxy-1H-indol-2-yl)pyrazine-2-carboxamide] | > 100
CC(C)(N)CNC(=O)c1cncc(-c2cc3ccc(Cl)c(F)c3[nH]2)n1 [Example 11, N-(2-amino-2-methylpropyl)-6-(6-chloro-7-fluoro-1H-indol-2-yl)pyrazine-2-carboxamide] | 10 to 100
CC(C)(N)CNC(=O)c1cncc(-c2cc3cccc(Cl)c3[nH]2)n1 [Example 28, N-(2-amino-2-methylpropyl)-6-(7-chloro-1H-indol-2-yl)pyrazine-2-carboxamide] | 10 to 100
CC(C)(N)CNC(=O)c1cncc(-c2[nH]c3ccccc3c2C#N)n1 [Example 57, N-(2-amino-2-methylpropyl)-6-(3-cyano-1H-indol-2-yl)pyrazine-2-carboxamide] | > 100
Cc1c(-c2cncc(C(=O)N(C)CC(C)(C)N)n2)[nH]c2ccccc12 [Example 66, N-(2-amino-2-methylpropyl)-N-methyl-6-(3-methyl-1H-indol-2-yl)pyrazine-2-carboxamide] | > 100
Cc1c(-c2cncc(C(=O)NCCN)n2)[nH]c2ccccc12 [Example 86, N-(2-aminoethyl)-6-(3-methyl-1H-indol-2-yl)pyrazine-2-carboxamide] | 10 to 100
Cc1c(-c2cncc(C(=O)NCC(C)(C)O)n2)[nH]c2ccccc12 [Example 100, N-(2-hydroxy-2-methylpropyl)-6-(3-methyl-1H-indol-2-yl)pyrazine-2-carboxamide] | > 100
Cc1c(-c2cncc(C(=O)N[C@H]3COC[C@H]3N)n2)[nH]c2ccccc12 (racemic) [Example 99, (rac)-N-((3r,4s)-4-aminotetrahydrofuran-3-yl)-6-(3-methyl-1H-indol-2-yl)pyrazine-2-carboxamide] | > 100
Cc1c(-c2cncc(C(=O)NCC3(N)CCOCC3)n2)[nH]c2ccc(OC(F)(F)F)cc12 [Example 61, N-((4-aminotetrahydro-2H-pyran-4-yl)methyl)-6-(3-methyl-5-(trifluoromethoxy)-1H-indol-2-yl)pyrazine-2-carboxamide] | 10 to 100
Cc1c(-c2cncc(C(=O)NCC(C)(C)N)n2)[nH]c2ccc(S(F)(F)(F)(F)F)cc12 [Example 3, N-(2-amino-2-methylpropyl)-6-(3-methyl-5-(pentafluoro-λ^6-sulfaneyl)-1H-indol-2-yl)pyrazine-2-carboxamide] | < 10
Cc1c(-c2cncc(C(=O)NCC(C)(C)N)n2)[nH]c2ccc(CN)cc12 [Example 71, N-(2-amino-2-methylpropyl)-6-(5-(aminomethyl)-3-methyl-1H-indol-2-yl)pyrazine-2-carboxamide] | > 100
CC(C)(N)CNC(=O)c1cncc(-c2cc3cc(F)c(F)cc3[nH]2)n1 [Example 20, N-(2-amino-2-methylpropyl)-6-(5,6-difluoro-1H-indol-2-yl)pyrazine-2-carboxamide] | 10 to 100
CC(C)(N)CNC(=O)c1cncc(-c2[nH]c3ccccc3c2C(F)(F)F)n1 [Example 54, N-(2-amino-2-methylpropyl)-6-(3-(trifluoromethyl)-1H-indol-2-yl)pyrazine-2-carboxamide] | > 100
Cc1c(-c2cncc(C(=O)NCC(C)(C)N)n2)[nH]c2cc(Cl)c(F)cc12 [Example 1, N-(2-amino-2-methylpropyl)-6-(6-chloro-5-fluoro-3-methyl-1H-indol-2-yl)pyrazine-2-carboxamide] | < 10
Cc1c(-c2cncc(C(=O)NC3CNC3)n2)[nH]c2ccccc12 [Example 91, N-(azetidin-3-yl)-6-(3-methyl-1H-indol-2-yl)pyrazine-2-carboxamide] | > 100
Cc1c(-c2cncc(C(=O)NC34CC(N)(C3)C4)n2)[nH]c2ccccc12 [Example 87, N-(3-aminobicyclo[1.1.1]pentan-1-yl)-6-(3-methyl-1H-indol-2-yl)pyrazine-2-carboxamide] | 10 to 100
CC(C)(N)CNC(=O)c1cncc(-c2cc3cc(F)cc(F)c3[nH]2)n1 [Example 24, N-(2-amino-2-methylpropyl)-6-(5,7-difluoro-1H-indol-2-yl)pyrazine-2-carboxamide] | 10 to 100

Compound | EC50 [nM]
Cc1c(-c2cncc(C(=O)NCC(C)(C)C)n2)[nH]c2ccccc12 [Example 68, 6-(3-methyl-1H-indol-2-yl)-N-neopentylpyrazine-2-carboxamide] | > 100
Cc1c(-c2cncc(C(=O)NCC3(N)CC3)n2)[nH]c2cc(Cl)c(F)cc12 [Example 81, N-((1-aminocyclopropyl)methyl)-6-(6-chloro-5-fluoro-3-methyl-1H-indol-2-yl)pyrazine-2-carboxamide] | 10 to 100
Cc1c(-c2cncc(C(=O)NC3CCC(N)C3)n2)[nH]c2ccccc12 (stereo not drawn) [Example 92, N-(3-aminocyclopentyl)-6-(3-methyl-1H-indol-2-yl)pyrazine-2-carboxamide] | > 100
CC(C)(N)CNC(=O)c1cncc(-c2[nH]c3ccccc3c2Cl)n1 [Example 49, N-(2-amino-2-methylpropyl)-6-(3-chloro-1H-indol-2-yl)pyrazine-2-carboxamide] | 10 to 100
Cc1ccc2[nH]c(-c3cncc(C(=O)NCC(C)(C)N)n3)c(C)c2c1 [Example 15, N-(2-amino-2-methylpropyl)-6-(3,5-dimethyl-1H-indol-2-yl)pyrazine-2-carboxamide] | 10 to 100
CC(C)(N)CNC(=O)c1cncc(-c2cc3ccnc(Cl)c3[nH]2)n1 [Example 42, N-(2-amino-2-methylpropyl)-6-(7-chloro-1H-pyrrolo[2,3-c]pyridin-2-yl)pyrazine-2-carboxamide] | > 100
CC(C)(N)CNC(=O)c1cncc(-c2cc3cc(Cl)ccc3[nH]2)n1 [Example 19, N-(2-amino-2-methylpropyl)-6-(5-chloro-1H-indol-2-yl)pyrazine-2-carboxamide] | 10 to 100
Cc1c(-c2cncc(C(=O)NCC3(N)CC(F)(F)C3)n2)[nH]c2cc(Cl)c(F)cc12 [Example 82, N-((1-amino-3,3-difluorocyclobutyl)methyl)-6-(6-chloro-5-fluoro-3-methyl-1H-indol-2-yl)pyrazine-2-carboxamide] | 10 to 100
Cc1c(-c2cncc(C(=O)NCC(C)(C)N)n2)[nH]c2c(F)cc(Cl)cc12 [Example 6, N-(2-amino-2-methylpropyl)-6-(5-chloro-7-fluoro-3-methyl-1H-indol-2-yl)pyrazine-2-carboxamide] | < 10
Cc1c(-c2cncc(C(=O)N[C@H]3CC[C@H](N)CC3)n2)[nH]c2ccccc12 [Example 97, N-((1r,4r)-4-aminocyclohexyl)-6-(3-methyl-1H-indol-2-yl)pyrazine-2-carboxamide] | > 100
CC(C)(N)CNC(=O)c1cncc(-c2cc3cc(Cl)c(F)cc3[nH]2)n1 [Example 17, N-(2-amino-2-methylpropyl)-6-(5-chloro-6-fluoro-1H-indol-2-yl)pyrazine-2-carboxamide] | 10 to 100
Cc1c(-c2cncc(C(=O)NCC3(N)CCC3)n2)[nH]c2ccc(OC(F)(F)F)cc12 [Example 58, N-((1-aminocyclobutyl)methyl)-6-(3-methyl-5-(trifluoromethoxy)-1H-indol-2-yl)pyrazine-2-carboxamide] | < 10
COC(=O)c1ccc2cc(-c3cncc(C(=O)NCC(C)(C)N)n3)[nH]c2c1 [Example 29, Methyl 2-(6-((2-amino-2-methylpropyl)carbamoyl)pyrazin-2-yl)-1H-indole-6-carboxylate] | 10 to 100
Cc1c(-c2cncc(C(=O)NCC(C)(C)N)n2)[nH]c2c1C(=O)CC(C)(C)C2 [Example 56, N-(2-amino-2-methylpropyl)-6-(3,6,6-trimethyl-4-oxo-4,5,6,7-tetrahydro-1H-indol-2-yl)pyrazine-2-carboxamide] | > 100
Cc1c(-c2cncc(C(=O)NCC3(N)CCOCC3)n2)[nH]c2ccccc12 [Example 89, N-((4-aminotetrahydro-2H-pyran-4-yl)methyl)-6-(3-methyl-1H-indol-2-yl)pyrazine-2-carboxamide] | 10 to 100
Cc1c(-c2cncc(C(=O)NCC(C)(C)N)n2)[nH]c2c1CCC(C)(C)C2 [Example 76, N-(2-Amino-2-methylpropyl)-6-(3,6,6-trimethyl-4,5,6,7-tetrahydro-1H-indol-2-yl)pyrazine-2-carboxamide] | 10 to 100
Cc1c(-c2cncc(C(=O)NCCN)n2)[nH]c2ccc(OC(F)(F)F)cc12 [Example 60, N-(2-aminoethyl)-6-(3-methyl-5-(trifluoromethoxy)-1H-indol-2-yl)pyrazine-2-carboxamide] | 10 to 100
Cc1c(-c2cncc(C(=O)NCC3(N)CCOCC3)n2)[nH]c2cc(Cl)c(F)cc12 [Example 80, N-((4-aminotetrahydro-2H-pyran-4-yl)methyl)-6-(6-chloro-5-fluoro-3-methyl-1H-indol-2-yl)pyrazine-2-carboxamide] | 10 to 100
